pIC50, pKd: −log10 of the molar value. Where two headings read alike, the source gives them in different places.
Key:
[1] = test system: multiple myeloma cell lines; test: Inhibition of multiple myeloma cell lines; type: cell-based, human; conditions: FIG. 4
[2] = test system: 4T1 (breast) syngeneic tumor; test: 4T1 in vivo tumor reduction; set-up: species or system Female Balb-C mice; conditions: 15 mg/kg orally QD, 5 days on 2 days off
Experimental: 0.5×10^6 4T1 cells were injected subcutaneously (SQ) into the right flank of Female Balb-C mice. Each group consisted of 5 tumor-bearing mice. 7 days after tumor implantation, mice were dosed orally QD with vehicle control (5% DMSO, 40% PEG300, 5% tween 80, 50% water) or HSND80 (15 mg/Kg). Mice were dosed 5 days on and 2 days off (drug holiday). Tumors were measured every other day (L, W, H) to give tumor volume in mm^3.

[3] = test system: CT-26 C2 tumor cells; test: CT-26 in vivo tumor reduction; set-up: species or system BALB/c female mouse; conditions: CT-26, day 17 from start of dosing, oral QD
Experimental: Each BALB/c female mouse was inoculated subcutaneously at the right flank with CT-26 C2 tumor cells (0.3×10^6/mouse) in 0.1 mL PBS for tumor development. Treatments for the efficacy study were started on day 10 after tumor inoculation when the average tumor size reached approximately 71 mm^3. Each group consisted of 6 tumor-bearing mice. Vehicle control was 25 mM citrate buffer (pH 2.5). HSND80 was dosed orally QD at 15 mg/Kg for 4 days and 10 mg/Kg afterwards. HSND100 was dosed at 15 mg/Kg. Mice were dosed 5 days on and 2 days off (drug holiday). Tumors were measured every other day (L, W, H) to give tumor volume in mm^3.

[4] = test system: MDA-MB-231 (breast cancer); test: Growth inhibition of MDA-MB-231 (NCI-60 human tumor cell line screen); type: cell-based
[5] = molecular target: MNK2 (Homo sapiens, UniProt Q9HBH9); test: MNK2 inhibition, in vitro studies at Reaction Biology Corporation; type: biochemical; conditions: 50 nM compound, 10 uM ATP
Sequence of MNK2 (Q9HBH9 whole entry): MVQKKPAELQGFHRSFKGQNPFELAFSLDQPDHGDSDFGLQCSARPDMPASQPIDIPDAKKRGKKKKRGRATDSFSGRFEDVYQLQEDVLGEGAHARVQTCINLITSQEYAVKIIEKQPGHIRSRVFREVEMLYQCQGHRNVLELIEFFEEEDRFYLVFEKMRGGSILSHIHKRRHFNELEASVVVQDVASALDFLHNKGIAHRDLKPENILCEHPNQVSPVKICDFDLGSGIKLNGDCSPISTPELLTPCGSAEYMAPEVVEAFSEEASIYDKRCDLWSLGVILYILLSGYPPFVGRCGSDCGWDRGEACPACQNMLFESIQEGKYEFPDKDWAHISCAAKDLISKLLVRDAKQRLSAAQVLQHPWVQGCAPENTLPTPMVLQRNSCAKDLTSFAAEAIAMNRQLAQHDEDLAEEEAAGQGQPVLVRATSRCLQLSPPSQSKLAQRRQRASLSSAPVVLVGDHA

[6] = test system: Caki-1 (renal cancer); test: Growth inhibition of Caki-1 (NCI-60 human tumor cell line screen); type: cell-based; conditions: 200 nM
[7] = molecular target: p70S6K (Homo sapiens, UniProt P23443); test: p70S6K inhibition, in vitro studies at Reaction Biology Corporation; type: biochemical; conditions: 25 nM compound, [ATP]=10 uM
Sequence of p70S6K (P23443 whole entry): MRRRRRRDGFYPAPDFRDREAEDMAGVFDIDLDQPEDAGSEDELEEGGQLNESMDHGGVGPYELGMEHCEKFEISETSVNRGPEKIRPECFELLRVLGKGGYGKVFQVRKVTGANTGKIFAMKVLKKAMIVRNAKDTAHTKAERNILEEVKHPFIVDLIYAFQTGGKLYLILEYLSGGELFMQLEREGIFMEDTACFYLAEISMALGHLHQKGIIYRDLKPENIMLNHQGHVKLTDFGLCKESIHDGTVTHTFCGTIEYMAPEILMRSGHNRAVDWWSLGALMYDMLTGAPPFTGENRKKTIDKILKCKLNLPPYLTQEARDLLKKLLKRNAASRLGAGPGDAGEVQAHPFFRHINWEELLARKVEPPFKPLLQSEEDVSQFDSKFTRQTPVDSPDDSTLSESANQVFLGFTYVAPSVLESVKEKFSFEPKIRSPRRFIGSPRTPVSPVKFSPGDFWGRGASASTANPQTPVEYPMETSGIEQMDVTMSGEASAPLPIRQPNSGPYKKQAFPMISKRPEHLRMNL
Experimental: The nature of the substituent on the imidazo[1,2-b]pyridazine moiety at position-6 was evaluated in in vitro studies performed at Reaction Biology Corporation (Malvern, PA). The results indicated the specific substituent dramatically affected the inhibition of p70S6K.

[8] = molecular target: T1, MER Proto-Oncogene tyrosine kinase (MERTK) (Homo sapiens, UniProt Q12866); test: KINOMEscan competition binding assay (Eurofins DiscoverX), MERTK
T1 construct: purchased Eurofins DiscoverX (KINOMEscan service)
T1 sequence (Q12866 21-999): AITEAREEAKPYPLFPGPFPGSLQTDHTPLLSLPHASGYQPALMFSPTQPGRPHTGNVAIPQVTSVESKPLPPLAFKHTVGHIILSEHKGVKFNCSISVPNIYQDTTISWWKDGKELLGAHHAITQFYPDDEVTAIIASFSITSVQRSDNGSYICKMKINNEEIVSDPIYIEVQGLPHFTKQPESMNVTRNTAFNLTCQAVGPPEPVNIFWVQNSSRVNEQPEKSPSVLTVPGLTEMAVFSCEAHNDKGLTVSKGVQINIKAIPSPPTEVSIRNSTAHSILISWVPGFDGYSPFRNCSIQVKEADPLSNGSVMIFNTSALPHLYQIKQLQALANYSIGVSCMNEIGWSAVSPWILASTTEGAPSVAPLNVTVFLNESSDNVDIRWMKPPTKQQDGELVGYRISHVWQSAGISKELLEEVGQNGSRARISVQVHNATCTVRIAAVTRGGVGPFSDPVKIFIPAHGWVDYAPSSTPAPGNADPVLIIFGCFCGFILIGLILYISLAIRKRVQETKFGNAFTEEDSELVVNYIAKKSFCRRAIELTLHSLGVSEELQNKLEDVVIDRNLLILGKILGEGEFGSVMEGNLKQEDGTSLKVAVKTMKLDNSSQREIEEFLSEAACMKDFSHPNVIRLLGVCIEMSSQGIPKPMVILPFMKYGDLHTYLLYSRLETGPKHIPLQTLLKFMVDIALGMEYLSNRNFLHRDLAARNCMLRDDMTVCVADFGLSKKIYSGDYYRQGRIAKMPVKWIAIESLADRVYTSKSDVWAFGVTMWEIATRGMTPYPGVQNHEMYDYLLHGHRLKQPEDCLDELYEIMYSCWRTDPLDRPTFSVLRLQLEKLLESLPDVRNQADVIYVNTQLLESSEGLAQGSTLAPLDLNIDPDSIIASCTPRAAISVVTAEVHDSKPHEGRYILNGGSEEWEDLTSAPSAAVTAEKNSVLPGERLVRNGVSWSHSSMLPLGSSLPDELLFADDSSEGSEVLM
Experimental: The affinity of several compounds hereof having a substituent on the imidazo[1,2-b]pyridazine moiety at position-6, wherein the substituent comprised one or more ring moieties was evaluated with respect to two TAM kinases: AXL and MERTK. Perhaps more specifically, the equilibrium dissociation constant between each of compounds HSND141, compound HSND149, HSND150, HSND151, and HSND80 and AXL and MERTK was evaluated at Eurofins DiscoverX using KINOMEscan™, which is a competition binding assay that quantitively measured the ability of each tested compound to displace an immobilized, active-site directed ligand. The assay uses DNA-tagged kinase, an immobilized ligand, and the test compound. Quantitative polymerase chain reaction (PCR) of the DNT tag was then used to measure the ability of the tested compound to displace the immobilized ligand.

C[C@@H]1CN(c2ccc3ncc(C#Cc4cncc(C(=O)Nc5ccc(CN6CCN(C)CC6)c(C(F)(F)F)c5)c4)n3n2)C[C@H](C)O1 [HSND80, 5-((6-((2S,6R)-2,6-Dimethylmorpholino)imidazo[1,2-b]pyridazin-3-yl)ethynyl)-N-(4-((4-methylpiperazin-1-yl)methyl)-3-(trifluoromethyl)phenyl)nicotinamide]
inhibition of multiple myeloma cell lines [1]: potently inhibited | reduction of growth of 4T1 tumor [2]: ~60% | tumor reduction compared to vehicle control [3]: 45% | inhibition at 0.2 µM ([4]; 200 nM): 100% | pIC50 ([4]; 72 hours): 8.07 | inhibition at 0.05 µM [5]: 96% | inhibition at 0.2 µM [6]: 100% | inhibition of p70S6K [7]: 97% | pKd ([8]; FIG. 7A, replicate 1, read-out: Kd MERTK, replicate 1): 8.80 | pKd ([8]; FIG. 7B, replicate 2, read-out: Kd MERTK, replicate 2): 8.68 | pKd ([8]; Table 1, DiscoverX Eurofins, read-out: Kd MERTK): > 9.77

— patent publication US20250243203A1, “NICOTINAMIDE- AND BENZAMIDE-BASED COMPOUNDS, CONJUGATES, AND COMPOSITIONS AS INHIBITORS OF TRANSLATIONAL- AND TRANSCRIPTIONAL-RELATED KINASES” (PURDUE RESEARCH FOUNDATION, priority 2022, published 2025)
